Where a SMILES comes first, the peptide text is derived from it. Bridges are numbered along the chain shown (N, C = ends). Where no end group is shown, it is not given here.
Columns and labels:
HIV-1 RT = molecular target: T1, HIV-1 RT (Human immunodeficiency virus type 1 group M subtype B, UniProt P03366); experiment: biochemical
T1 construct: The heterodimeric p66/p51 RT was eluted with an imidazole gradient; p66 and p51 derived from p66 by proteolytic cleavage of the C-terminal RNAse H domain; made in house; host or cells: E. coli (M15 for the His-tagged subunits)
Method: RNA-dependent-DNA RT-polymerase activity was measured in a standard reaction assay using poly(rA)-(dT)15 as template/primer as described in Restle et al. (1990). Ten microliters of reverse transcriptase (RT) at 20 nM was incubated at 37° C. for 30 min with 20 μL of reaction buffer (50 mM Tris, pH 8.0, 80 mM KCl, 6 mM MgCl2, 5 mM DTT, 0.15 μM poly(rA-dT), 15 μM dTTP, 0.3 μCi 3H-dTTP). For peptide evaluation, HIV-1 RT was incubated with increasing concentrations of peptide inhibitors for […], and polymerase reaction was initiated by adding reaction buffer. Reactions were stopped by precipitation of nucleic acids with 5 ml of 20% trichloroacetic acid (TCA) solution for 2 h on ice, then filtered using a multiwell-sample collector (Millipore), and washed with 5% TCA solution. Filters were dried at 55° C. for 30 min and radionucleotide incorporation was determined by liquid scintillation spectrometry.
A series of peptides have been derived from Pep-A sequence (SEQ ID NO: 28), which is derived from HIV-1 reverse transcriptase. First, P1 peptide (SEQ ID NO: 1) was obtained by removing the N-terminal arginine of Pep-A. Then, additional peptides were generated by performing an alanine scan on P1. P1-derived peptides were evaluated using a standard polymerase RT assay. Reported data correspond to the mean of three separate experiments.

HIV-1-LAI strain = settings: for IC50, block of viral proliferation (in words): peptide associated with Pep-1
Method: The anti-HIV activities of the peptides were assayed according to the methods described in Roisin et al. (2004). Phytohemagglutinin-P(PHA-P)-activated peripheral blood mononuclear cells (PBMC) treated by increasing concentrations of peptide (from 100 to 0.1 nM), one hour later, were infected with hundred 50% tissue culture infectious doses (TCID50) per 100,000 cells of the HIV-1-LAI strain (Barre-Sinoussi et al., 1983). This virus was amplified in vitro on PHA-P-activated PBMC. Viral stock was titrated using PHA-P-activated PBMC, and 50% TCID50 were calculated using Kärber's formula (Kärber, 1931). Samples were maintained throughout the culture, and cell supernatants were collected at day 7 post-infection and stored at −20° C. Viral replication was measured by quantifying reverse transcriptase (RT) activity in cell culture supernatants. In parallel, cytotoxicity of the compounds was evaluated in uninfected PHA-P-activated PBMC by colorimetric 3-(4-5 dimethylthiazol-2-yl)2,5diphenyl tetrazolium bromite (MTT) assay on day 7 (as described in Mossmann, 1983). Experiments were performed in triplicate and repeated with another blood donor. Data analyses were performed using SofiMax® Pro 4.6 microcomputer software: percent of inhibition of RT activity or of cell viability were plotted vs concentration and fitted with quadratic curves; 50% effective doses (ED50) and cytotoxic doses (CD50) were calculated.
In order to avoid any limitation due to the poor ability of peptides to cross cellular membranes, they were associated to the peptide-based nanoparticle delivery system Pep-1 (SEQ ID NO: 29), at a 1/10 molar ratio.

HIV-1 integrase [1] = molecular target: T2, HIV-1 integrase (Human immunodeficiency virus type 1 group M subtype B, UniProt P04585); experiment: biochemical; type: binding
T2 construct: Integrase is a 32 kDA viral protein that is biologically active under a multimeric form
Method: Fluorescein-labeled peptides (40 nM) were mixed with varying concentrations of integrase in 20 mM Tris pH 7.2, 50 mM NaCl, 10 mM MgCl2, and the r values were recorded.
Effect of the different peptides on the integrase (IN) activity, DNA binding and IN/DNA dissociation were evaluated as described in Example III.1 above, using fluorescence polarization and anisotropy measurements. Binding constant of the peptide for IN was determined by steady state fluorescence and anisotropy.

HIV-1 integrase [2] = molecular target: T2, HIV-1 integrase; experiment: biochemical
Method: The simultaneous measurement of integrase-DNA interaction and subsequent 3′-processing activity by steady-state fluorescence anisotropy was performed as described in Guiot et al. (2006). […] After the initial DNA-binding step (performed at 25° C.), the 3′-processing activity was measured at 37° C. by fixed-time experiments: The reaction was stopped at varying times by adding SDS (0.25% final) which disrupts all IN-DNA complexes in the sample. The IN-mediated cleavage of the terminal GT dinucleotide (labeled by fluorescein on the 3′-end) leads to a significant decrease of r as compared to the r value corresponding to the fluorescein-labeled unprocessed DNA substrate. The fraction of released dinucleotide is calculated by using Eq. (1): […]

For `CC[C@H](C)[C@@H]1NC(=O)[C@H](Cc2c[nH]c3ccccc23)NC(=O)[C@H](CCC(=O)O)NC(=O)[C@H]([C@@H](C)O)NC(=O)[C@H](CC(C)C)NC(=O)[C@H](Cc2c[nH]c3ccccc23)NC(=O)[C@H](CCCCN)NC(=O)[C@H]([C@@H](C)O)NC(=O)CNC(=O)[C@@H](N)CSSC[C@@H](C(=O)O)NC(=O)[C@H](CCC(=O)O)NC(=O)[C@H](C)NC(=O)[C@H](CCC(=O)O)NC(=O)[C@H](C)NC(=O)[C@H]([C@@H](C)O)NC(=O)[C@H](CC(C)C)NC(=O)[C@@H]2CCCN2C1=O` [PAW-C1] (H-CGTKWLTEWIPLTAEAEC-OH; disulfide 1-18), the Ki (HIV-1 RT) was 0.2 µM, the EC50 (HIV-1-LAI strain; read-out: EC50 HIV-1 lai, Table 10) was 0.0012 µM and the Kd (HIV-1 integrase [1]) was 0.29 µM. The Ki (HIV-1 integrase [2]) was 21 µM.

With `CC[C@H](C)[C@H](NC(=O)[C@@H](NC(=O)[C@H](CCC(=O)O)NC(=O)[C@@H](NC(=O)[C@H](CC(C)C)NC(=O)[C@H](C)NC(=O)[C@H](CCCCN)NC(=O)[C@@H](NC(=O)CNC(=O)[C@@H](N)CCCNC(=N)N)[C@@H](C)O)[C@@H](C)O)C(C)C)C(=O)N1CCC[C@H]1C(=O)N[C@@H](CC(C)C)C(=O)N[C@H](C(=O)N[C@@H](CCC(=O)O)C(=O)N[C@@H](CCC(=O)O)C(=O)N[C@@H](C)C(=O)N[C@@H](CCC(=O)O)C(=O)O)[C@@H](C)O` [Pep-A, reference compound] the Ki (HIV-1 RT) was 35 µM and the “antiviral activity (in words)” value (HIV-1-LAI strain; associated to Pep-1) was “no antiviral activity”.

`CC[C@H](C)[C@H](NC(=O)[C@@H](NC(=O)[C@H](CCC(=O)O)NC(=O)[C@@H](NC(=O)[C@H](CC(C)C)NC(=O)[C@H](C)NC(=O)[C@H](CCCCN)NC(=O)[C@@H](NC(=O)CN)[C@@H](C)O)[C@@H](C)O)C(C)C)C(=O)N1CCC[C@H]1C(=O)N[C@@H](CC(C)C)C(=O)N[C@H](C(=O)N[C@@H](CCC(=O)O)C(=O)N[C@@H](CCC(=O)O)C(=O)N[C@@H](C)C(=O)N[C@@H](CCC(=O)O)C(=O)O)[C@@H](C)O` [Peptide P1] was tested, and the Ki (HIV-1 RT) was 7.5 µM, the “increase in potency to inhibit RT polymerase over Pep-A” value (HIV-1 RT; relative to Pep-A) was 5 fold and the “IC50, block of viral proliferation (in words)” value (shortened to “IC50, block”) (HIV-1-LAI strain) was “low μM range”.

`CC[C@H](C)[C@H](NC(=O)[C@@H](NC(=O)[C@H](CCC(=O)O)NC(=O)[C@@H](NC(=O)[C@H](CC(C)C)NC(=O)[C@H](C)NC(=O)[C@H](CCCCN)NC(=O)[C@@H](NC(=O)[C@H](C)N)[C@@H](C)O)[C@@H](C)O)C(C)C)C(=O)N1CCC[C@H]1C(=O)N[C@@H](CC(C)C)C(=O)N[C@H](C(=O)N[C@@H](CCC(=O)O)C(=O)N[C@@H](CCC(=O)O)C(=O)N[C@@H](C)C(=O)N[C@@H](CCC(=O)O)C(=O)O)[C@@H](C)O` [Peptide P2] was tested, and the Ki (HIV-1 RT) was 28 ± 11 µM.

For `CC[C@H](C)[C@H](NC(=O)[C@@H](NC(=O)[C@H](CCC(=O)O)NC(=O)[C@@H](NC(=O)[C@H](CC(C)C)NC(=O)[C@H](C)NC(=O)[C@H](CCCCN)NC(=O)[C@H](C)NC(=O)CN)[C@@H](C)O)C(C)C)C(=O)N1CCC[C@H]1C(=O)N[C@@H](CC(C)C)C(=O)N[C@H](C(=O)N[C@@H](CCC(=O)O)C(=O)N[C@@H](CCC(=O)O)C(=O)N[C@@H](C)C(=O)N[C@@H](CCC(=O)O)C(=O)O)[C@@H](C)O` [Peptide P3], the Ki (HIV-1 RT) was 10.3 ± 2.1 µM.

With `CC[C@H](C)[C@H](NC(=O)[C@@H](NC(=O)[C@H](CCC(=O)O)NC(=O)[C@@H](NC(=O)[C@H](CC(C)C)NC(=O)[C@H](C)NC(=O)[C@H](C)NC(=O)[C@@H](NC(=O)CN)[C@@H](C)O)[C@@H](C)O)C(C)C)C(=O)N1CCC[C@H]1C(=O)N[C@@H](CC(C)C)C(=O)N[C@H](C(=O)N[C@@H](CCC(=O)O)C(=O)N[C@@H](CCC(=O)O)C(=O)N[C@@H](C)C(=O)N[C@@H](CCC(=O)O)C(=O)O)[C@@H](C)O` [Peptide P4] the Ki (HIV-1 RT) was 15 ± 2.9 µM.

With `CC[C@H](C)[C@H](NC(=O)[C@@H](NC(=O)[C@H](CCC(=O)O)NC(=O)[C@@H](NC(=O)[C@H](CC(C)C)NC(=O)CNC(=O)[C@H](CCCCN)NC(=O)[C@@H](NC(=O)CN)[C@@H](C)O)[C@@H](C)O)C(C)C)C(=O)N1CCC[C@H]1C(=O)N[C@@H](CC(C)C)C(=O)N[C@H](C(=O)N[C@@H](CCC(=O)O)C(=O)N[C@@H](CCC(=O)O)C(=O)N[C@@H](C)C(=O)N[C@@H](CCC(=O)O)C(=O)O)[C@@H](C)O` [Peptide P5] the Ki (HIV-1 RT) was 20 ± 3.7 µM.

In the case of `CC[C@H](C)[C@H](NC(=O)[C@@H](NC(=O)[C@H](CCC(=O)O)NC(=O)[C@@H](NC(=O)[C@H](CC(C)C)NC(=O)[C@H](C)NC(=O)[C@H](CCCCN)NC(=O)[C@@H](NC(=O)CN)[C@@H](C)O)[C@@H](C)O)C(C)C)C(=O)N1CCC[C@H]1C(=O)N[C@@H](CC(C)C)C(=O)N[C@H](C(=O)N[C@@H](C)C(=O)N[C@@H](CCC(=O)O)C(=O)N[C@@H](C)C(=O)N[C@@H](CCC(=O)O)C(=O)O)[C@@H](C)O` [Peptide P14], the Ki (HIV-1 RT) is reported as 14 ± 3 µM.

With `CC[C@H](C)[C@H](NC(=O)[C@@H](NC(=O)[C@H](CCC(=O)O)NC(=O)[C@@H](NC(=O)[C@H](CC(C)C)NC(=O)[C@H](C)NC(=O)[C@H](CCCCN)NC(=O)[C@@H](NC(=O)CN)[C@@H](C)O)[C@@H](C)O)C(C)C)C(=O)N1CCC[C@H]1C(=O)N[C@@H](CC(C)C)C(=O)N[C@H](C(=O)N[C@@H](CCC(=O)O)C(=O)N[C@@H](C)C(=O)N[C@@H](C)C(=O)N[C@@H](CCC(=O)O)C(=O)O)[C@@H](C)O` [Peptide P15] the Ki (HIV-1 RT) was 14 ± 2.2 µM.

For `CC[C@H](C)[C@H](NC(=O)[C@@H](NC(=O)[C@H](CCC(=O)O)NC(=O)[C@@H](NC(=O)[C@H](CC(C)C)NC(=O)[C@H](C)NC(=O)[C@H](CCCCN)NC(=O)[C@@H](NC(=O)CN)[C@@H](C)O)[C@@H](C)O)C(C)C)C(=O)N1CCC[C@H]1C(=O)N[C@@H](CC(C)C)C(=O)N[C@H](C(=O)O)[C@@H](C)O` [Peptide P18], the Ki (HIV-1 RT) was 53 ± 12 µM and the “inhibition of RT polymerase activity (in words)” value (HIV-1 RT) was “does not inhibit RT polymerase activity”.

GAKTETLVIPETELEA [Pscramble] showed a Ki (HIV-1 RT) of 61 ± 12 µM.

GTKAATEVIPLT [Peptide P19] gave a Ki (HIV-1 RT) of 49 ± 9 µM.

With GTKAATEVIPLTEEAE [Peptide P6] the Ki (HIV-1 RT) was 5.7 µM and the “IC50, block” value (HIV-1-LAI strain) was “low μM range”.

GTKALAEVIPLTEEAE [Peptide P7] was tested, and the Ki (HIV-1 RT) was 13.5 ± 2.1 µM.

Molecule GTKALTEAIPLTEEAE [Peptide P9] has a Ki (HIV-1 RT) of 15 ± 7.3 µM.

In the case of GTKALTEVAPLTEEAE [Peptide P10], the Ki (HIV-1 RT) is reported as 7.3 µM and the “IC50, block” value (HIV-1-LAI strain) is reported as “low μM range”.

GTKALTEVIALTEEAE [Peptide P11] was tested, and the Ki (HIV-1 RT) was 7 µM and the “IC50, block” value (HIV-1-LAI strain) was “low μM range”.

Molecule GTKALTEVIPATEEAE [Peptide P12] has a Ki (HIV-1 RT) of 22 ± 3 µM.

In the case of GTKALTEVIPLAEEAE [Peptide P13], the Ki (HIV-1 RT) is reported as 10.2 ± 2.5 µM.

With GTKAWTEVWPL [Peptide P17] the Ki (HIV-1 RT) was 35 ± 11 µM and the “reduction of efficiency (higher Ki) relative to PAW” value (HIV-1 RT; relative to PAW) was 50 fold.

GTKWATEWAPLTAEAE [Peptide P28] gave a Ki (HIV-1 RT) of 2 ± 0.6 µM.

KWLTEWIPLTAE [Peptide P29] showed a Ki (HIV-1 RT) of 1 ± 0.4 µM.

— patent US20110294728A1, “Antiviral Polypeptides” (priority 2008, published 2011)
